This passage reports T/C and IC50 results from ChEMBL document CHEMBL1128608, “Syntheses and biological properties of novel aza-podophyllotoxin analogs prossessing pronounced antitumor activity” (Bioorg Med Chem Lett, 1995).

The subject of data set [1] is Mus musculus. Description: Assayed for antitumor activity against P388 leukemia in mice at a dose of 10 mg/kg/injection. The class given is functional.
Data set [2] concerns Mus musculus. As to the kind of experiment: Assayed for antitumor activity against P388 leukemia in mice at a dose of 25 mg/kg/injection. Format: functional.
In data set [3] the test system is Mus musculus. Description: Assayed for antitumor activity against P388 leukemia in mice at a dose of 100 mg/kg/injection; Toxic, T/C<85%. The class given is toxicity, organism-based. To be noted: in vivo.
Data set [4] has as its system Mus musculus. As to the kind of experiment: Assayed for antitumor activity against P388 leukemia in mice at a dose of 50 mg/kg/injection. The class given is functional.
The test system of data set [5] is Mus musculus. Description: Assayed for antitumor activity against P388 leukemia in mice at a dose of 5 mg/kg/injection. Format: functional.
The next data set deals with L1210. Description: Tested for in vitro cytotoxicity against L1210 murine leukemia cells in mice. The class given is functional, cell-based. Conditions: Mus musculus.
The test system of data set [6] is Mus musculus. Description: Assayed for antitumor activity against P388 leukemia in mice at a dose of 100 mg/kg/injection. Format: functional.
For data set [7], the system named is Mus musculus. As to the kind of experiment: Assayed for antitumor activity against P388 leukemia in mice at a dose of 250 mg/kg/injection; Toxic, T/C<85%. Conditions: in vivo. The class given is toxicity, organism-based.
Data set [8] concerns Mus musculus. As to the kind of experiment: Assayed for antitumor activity against P388 leukemia in mice at a dose of 250 mg/kg/injection. Format: functional.
For data set [9], the system named is Mus musculus. As to the kind of experiment: Tested for antitumor activity against B16 melanoma in mice, at a dose of 100 mg/kg given intraperitoneally. Format: functional. To be noted: route intraperitoneal.
The test system of data set [10] is Mus musculus. As to the kind of experiment: Tested for antitumor activity against vincristine-resistant P388 leukemia (P388/VCR) in mice, at a dose of 2.5 mg/kg given intraperitoneally. Format: functional. Conditions: route intraperitoneal.
The test system of data set [11] is Mus musculus. Description: Assayed for antitumor activity against P388 leukemia in mice at a dose of 2.5 mg/kg/injection. Format: functional.
Data set [12] in a line: Evaluated for the inhibition of microtubule assembly prepared from bovine brain. Format: functional, Bos taurus.
For data set [13], the system named is Mus musculus. As to the kind of experiment: Tested for antitumor activity against vincristine-resistant P388 leukemia (P388/VCR) in mice, at a dose of 25 mg/kg given intraperitoneally. The class given is functional. Conditions: route intraperitoneal.
Data set [14] concerns Mus musculus. Description: Tested for antitumor activity against vincristine-resistant P388 leukemia (P388/VCR) in mice, at a dose of 10 mg/kg given intraperitoneally. Format: functional. Conditions: route intraperitoneal.
Data set [15] concerns Mus musculus. As to the kind of experiment: Tested for antitumor activity against B16 melanoma in mice, at a dose of 50 mg/kg given intraperitoneally. Format: functional. Conditions: route intraperitoneal.
Data set [16] has as its system Mus musculus. Description: Tested for antitumor activity against vincristine-resistant P388 leukemia (P388/VCR) in mice, at a dose of 5 mg/kg given intraperitoneally. Format: functional. Conditions: route intraperitoneal.
For data set [17], the system named is Mus musculus. As to the kind of experiment: Tested for antitumor activity against B16 melanoma in mice, at a dose of 25 mg/kg given intraperitoneally. Format: functional. To be noted: route intraperitoneal.
In data set [18] the test system is Mus musculus. Description: Tested for antitumor activity against vincristine-resistant P388 leukemia (P388/VCR) in mice, at a dose of 10 mg/kg given intraperitoneally; Toxic, T/C<85%. Conditions: in vivo, ip. More on the design: dose 10 mg/kg, route intraperitoneal. The class given is toxicity, organism-based.
Data set [19] concerns Mus musculus. As to the kind of experiment: Tested for antitumor activity against B16 melanoma in mice at a dose of 25 mg/kg given intraperitoneally. Format: functional. To be noted: route intraperitoneal.
For data set [20], the system named is Mus musculus. As to the kind of experiment: Tested for antitumor activity against vincristine-resistant P388 leukemia (P388/VCR) in mice at a dose 5 mg/kg, given intraperitoneally; Toxic, T/C<85%. The class given is toxicity, organism-based. To be noted: in vivo, ip. On the set-up: dose 5 mg/kg, route intraperitoneal.
Data set [21] concerns Mus musculus. Description: Tested for antitumor activity against vincristine-resistant P388 leukemia (P388/VCR) in mice at a dose 2.5 mg/kg, given intraperitoneally. The class given is functional. To be noted: route intraperitoneal.
For data set [22], the system named is Mus musculus. Description: Tested for antitumor activity against vincristine-resistant P388 leukemia (P388/VCR) in mice at a dose 1 mg/kg, given intraperitoneally. To be noted: route intraperitoneal. The class given is functional.
For data set [23], the system named is Mus musculus. As to the kind of experiment: Assayed for antitumor activity against P388 leukemia in mice at a dose of 50 mg/kg/injection; Toxic, T/C<85%. Format: toxicity, organism-based. Conditions: in vivo.

≈ marks a conversion by molar mass, not a printed value.

One may read the T/C as the ratio of treated to control. For orientation: IC50 means the midpoint of a concentration-inhibition curve. A high value points to weaker potency in that assay. Turning to `COc1cc(OC)cc([C@@H]2c3cc4c(cc3N[C@H]3COC(=O)N23)OCCO4)c1`, the T/C in the data set on Mus musculus [1] was 131%; with Mus musculus [2], 147%; in the data set with Mus musculus [3] it was under 85%; with Mus musculus [4], 199%; in the data set with Mus musculus [5], 114%. In the data set with L1210, this molecule showed an IC50 of 0.028 µg/mL (≈ 0.0728 µM).
Turning to `COc1cc(OC)cc([C@@H]2c3cc4c(cc3N[C@@H]3COC(=O)N23)OCO4)c1`, the T/C amounted to 123% in the data set with Mus musculus [1], 137% in the data set with Mus musculus [2], 159% in the data set with Mus musculus [4] and 214% in the data set with Mus musculus [6]. Further, in the data set on L1210, the IC50 turned out to be 0.22 µg/mL (≈ 0.594 µM).
`COc1cc([C@@H]2c3cc4c(cc3N[C@@H]3COC(=O)N23)OCCO4)cc(OC)c1OC`: the T/C in the data set with Mus musculus [1] is on record as 131%; in the data set on Mus musculus [2] it was 153%; in the data set on Mus musculus [7], under 85%; with Mus musculus [4] it was 165%; in the data set with Mus musculus [6], 233%; in the data set with Mus musculus [5], 119%. For the same molecule, the half-maximal inhibitory concentration (IC50) in the data set with L1210 worked out at 0.052 µg/mL (≈ 0.125 µM).
`COc1cc([C@@H]2c3cc4c(cc3N(N)[C@@H]3COC(=O)N23)OCO4)cc(OC)c1OC`: the T/C is recorded as 111% with Mus musculus [1]; 122% in the data set with Mus musculus [2]; 161% in the data set on Mus musculus [8]; 147% in the data set on Mus musculus [4]; 147% with Mus musculus [6]. In addition, in the data set on L1210, the midpoint of inhibition, the IC50, lay at 0.75 µg/mL (≈ 1.81 µM).
Turning to `COc1cc([C@@H]2c3cc4c(cc3N[C@H]3COC(=O)N23)OCO4)cc(OC)c1OC`, the T/C is on record as 128% with Mus musculus [1]; 197% with Mus musculus [9]; 150% in the data set on Mus musculus [2]; 113% in the data set with Mus musculus [10]; 111% in the data set with Mus musculus [11]; over 326% in the data set on Mus musculus [8]. The T/C was determined as 161% in the data set on Mus musculus [4]; 172% with Mus musculus [6]; 152% in the data set with Mus musculus [13]; 124% in the data set with Mus musculus [5]; 152% with Mus musculus [14]; 153% in the data set on Mus musculus [15]. In the data set with Mus musculus [16], this molecule showed a T/C of 129%. The figures for the IC50 (in data set [12]; with L1210) were 0.42 µg/mL (≈ 1.05 µM) and 0.05 µg/mL (≈ 0.125 µM), respectively.
For the molecule `COc1cc([C@@H]2c3cc4c(cc3N[C@H]3COC(=O)N23)OCCO4)cc(OC)c1OC`, the T/C is on record as 144% in the data set with Mus musculus [1]; 156% with Mus musculus [2]; under 85% in the data set with Mus musculus [3]; 177% in the data set with Mus musculus [4]; 139% with Mus musculus [5]. Besides, the IC50 in the data set with L1210 was determined as 0.055 µg/mL (≈ 0.133 µM).
In the case of `COc1cc([C@@H]2c3cc4c(cc3N[C@@H]3COC(=O)N23)OCO4)cc(OC)c1OC`, the T/C in the data set on Mus musculus [1] is 144%; in the data set on Mus musculus [2] it was 161%; in the data set with Mus musculus [17], 163%; in the data set on Mus musculus [18], under 85%; with Mus musculus [4], 239%; with Mus musculus [5], 117%. Further, the T/C with Mus musculus [15] was 190%; in the data set on Mus musculus [16], 137%. Besides, the results for the IC50 (in [12]; in the data set with L1210) were 1.7 µg/mL (≈ 4.25 µM) and 0.42 µg/mL (≈ 1.05 µM), respectively.
Consider `COc1cc(OC)cc([C@@H]2c3cc4c(cc3N[C@@H]3COC(=O)N23)OCCO4)c1`, for which the T/C is on record as 133% with Mus musculus [1]; 150% with Mus musculus [2]; under 85% with Mus musculus [7]; 172% in the data set on Mus musculus [4]; 94% in the data set with Mus musculus [6]; 117% in the data set on Mus musculus [5]. In the data set with L1210, this molecule returned an IC50 of 0.08 µg/mL (≈ 0.208 µM).
Regarding `COc1cc([C@@H]2c3cc4c(cc3N(N)[C@H]3COC(=O)N23)OCO4)cc(OC)c1OC`, the T/C in the data set with Mus musculus [1] is given as 109%; in the data set on Mus musculus [2] it was 114%; with Mus musculus [7] it was under 85%; in the data set with Mus musculus [4], 134%; in the data set with Mus musculus [6], 153%; in the data set on Mus musculus [5] it was 104%. Moreover, it took 0.09 µg/mL (≈ 0.217 µM) to reach half-maximal inhibition in the data set on L1210 (IC50).
In the case of `COc1cc(OC)cc([C@@H]2c3cc4c(cc3N[C@H]3COC(=O)N23)OCO4)c1`, the T/C in the data set on Mus musculus [1] is given as 110%; in the data set with Mus musculus [2] it was 139%; in the data set on Mus musculus [8], 206%; in the data set on Mus musculus [4], 156%; with Mus musculus [6], 206%. This molecule showed an IC50 with L1210 of 0.16 µg/mL (≈ 0.432 µM).
Turning to `COc1cc(C2c3cc4c(cc3N=C3COC(=O)N32)OCO4)cc(OC)c1OC` (configuration not stated), the T/C in the data set on Mus musculus [1] amounted to 109%; in the data set with Mus musculus [2], 109%; in the data set with Mus musculus [8], 144%; in the data set with Mus musculus [4] it was 111%; with Mus musculus [6] it was 109%; with Mus musculus [5] it was 104%. This molecule also gave an IC50 with L1210 of 0.54 µg/mL (≈ 1.36 µM).
On to `COc1cc([C@@H]2c3cc4c(cc3[C@H](O)[C@H]3COC(=O)[C@H]23)OCO4)cc(OC)c1OC` [PODOFILOX], for which the T/C in the data set on Mus musculus [1] is 109%; in the data set on Mus musculus [2] it was 111%; with Mus musculus [19], 110%; in the data set on Mus musculus [20] it was under 85%; with Mus musculus [11], 111%; with Mus musculus [21] it was 125%. Moreover, the figures for the T/C with Mus musculus [22] and in the data set with Mus musculus [23] were 122% and under 85%, respectively. The IC50 was found to be 0.13 µg/mL (≈ 0.314 µM) in data set [12] and 0.0036 µg/mL (≈ 0.00869 µM) in the data set on L1210.
